Converted amounts (≈) assume the structure as drawn. “And” between values parts separate entries of the source, which are not always exact repeats. Identical values can stand only once. Each block holds one compound with its values, some of them ahead of it.
Assays:
Test in all cases: ≥ marks a high value that may be exact or a test limit, other limits are often not marked, values filed in µg/mL are converted to µM
[1] = system: Bacillus subtilis ATCC 6633
[2] = system: Acinetobacter baumannii ATCC BAA-747
[3] = system: Enterococcus faecalis ATCC 29212
Acinetobacter junii RT-4 = system: Acinetobacter junii RT-4
Bacillus megaterium Bm11 = system: Bacillus megaterium Bm11
[4] = system: Acinetobacter baumannii ATCC 19606
[5] = system: Klebsiella pneumoniae ATCC 700603
[6] = system: Staphylococcus aureus ATCC 43300
[7] = system: Pseudomonas aeruginosa ATCC BAA-427
Escherichia coli D21 = system: Escherichia coli D21
[8] = system: Staphylococcus aureus ATCC 29213
[9] = system: Aeromonas hydrophila Rt-6
[10] = system: Pseudomonas aeruginosa ATCC 27583
[11] = system: Staphylococcus aureus ATCC 700699
Saccharomyces cerevisiae = system: Saccharomyces cerevisiae
Pseudomonas aeruginosa = system: Pseudomonas aeruginosa
[12] = system: Klebsiella pneumoniae ATCC 27736
[13] = system: Schizosaccharomyces pombe
[14] = system: Pseudomonas syringae pv. tabaci 1918NCPPB
[15] = system: Enterococcus faecium ATCC 700221
[16] = system: Candida albicans ATCC 10231
[17] = system: Staphylococcus aureus ATCC BAA-44
Cryptococcus neoformans = system: Cryptococcus neoformans
[18] = system: Pseudomonas aeruginosa ATCC 15692
[19] = system: Staphylococcus epidermidis ATCC 12228
[20] = system: Staphylococcus aureus ATCC 700698
[21] = system: Yersinia pseudotuberculosis YPIII
Staphylococcus capitis 1 = system: Staphylococcus capitis 1
[22] = system: Staphylococcus aureus ATCC 33592
[23] = system: Escherichia coli ATCC 9637
[24] = system: Pseudomonas aeruginosa ATCC 27853
[25] = system: Streptococcus pyogenes ATCC 21547
[26] = system: Candida parapsilosis ATCC 22019
[27] = system: Staphylococcus aureus Cowan 1
[28] = system: Pseudomonas aeruginosa BB2013-100
Escherichia coli BW25113 = system: Escherichia coli BW25113
[29] = system: Escherichia coli BB2013-30
[30] = system: Klebsiella pneumoniae Oschner KP-1
[31] = system: Enterobacter cloacae BB2012-181
[32] = system: Acinetobacter baumannii Josh 28
[33] = system: Enterobacter cloacae BB2013-32
[34] = system: Enterobacter cloacae St. L P23
[35] = system: Escherichia coli ARLG-1012
[36] = system: Escherichia coli ATCC 25922
[37] = system: Acinetobacter baumannii Josh 230
[38] = system: Klebsiella pneumoniae J3702
[39] = system: Enterobacter asburiae St. L P23
[40] = system: Klebsiella pneumoniae BB2009-209
[41] = system: Klebsiella aerogenes St. L P63
[42] = system: Pseudomonas aeruginosa J4228
Escherichia coli JW55034 = system: Escherichia coli JW55034

MIC [1]: 7.6 µM (≈ 12.5 µg/mL)
MIC [2]: 4 µM (≈ 6.56 µg/mL)
MIC [3]: 6 µM (≈ 9.84 µg/mL)
MIC (Acinetobacter junii RT-4): 3 µM (≈ 4.92 µg/mL)
MIC (Bacillus megaterium Bm11): 1.94 µM (≈ 3.18 µg/mL)
MIC [4]: 6 µM (≈ 9.84 µg/mL)
MIC [5]: 16 µM (≈ 26.2 µg/mL)
MIC [6]: 4 µM (≈ 6.56 µg/mL)
MIC [7]: 7.6 µM (≈ 12.5 µg/mL)
MIC (Escherichia coli D21): 11 µM (≈ 18 µg/mL)
MIC [8]: 3.6 µM (≈ 5.9 µg/mL)
MIC [9]: ≥ 40 µM
MIC [10]: ≥ 32 µM
MIC [11]: 3.6 µM (≈ 5.9 µg/mL)
MIC (Saccharomyces cerevisiae): 6 µM (≈ 9.84 µg/mL)
MIC (Pseudomonas aeruginosa): 64 µM (≈ 105 µg/mL)
MIC [12]: 11.4 µM (≈ 18.7 µg/mL)
MIC [13]: 6 µM (≈ 9.84 µg/mL)
MIC [14]: 6 µM (≈ 9.84 µg/mL)
MIC [15]: 8 µM (≈ 13.1 µg/mL)
MIC [16]: 12 µM (≈ 19.7 µg/mL)
MIC [17]: 3.6 µM (≈ 5.9 µg/mL)
MIC (Cryptococcus neoformans): 12 µM (≈ 19.7 µg/mL)
MIC [18]: 21.9 µM (≈ 35.9 µg/mL)
MIC [19]: 1.94 µM (≈ 3.18 µg/mL)
MIC [20]: 3.6 µM (≈ 5.9 µg/mL)
MIC [21]: 3 µM (≈ 4.92 µg/mL)
MIC (Staphylococcus capitis 1): 1.5 µM (≈ 2.46 µg/mL)
MIC [22]: 3.6 µM (≈ 5.9 µg/mL)
MIC [23]: 12.5 µM (≈ 20.5 µg/mL)
MIC [24]: > 48 µM
MIC [25]: 6 µM (≈ 9.84 µg/mL)
MIC [26]: 12 µM (≈ 19.7 µg/mL)
MIC [27]: 2.74 µM (≈ 4.49 µg/mL)
SMILES: CC[C@H](C)[C@H](NC(=O)[C@H](CCCNC(=N)N)NC(=O)CNC(=O)[C@H](CC(C)C)NC(=O)[C@H](Cc1ccccc1)NC(=O)[C@H](CCCCN)NC(=O)[C@H](CO)NC(=O)[C@H](Cc1ccccc1)NC(=O)[C@H](Cc1c[nH]c2ccccc12)NC(=O)[C@H](CCC(N)=O)NC(=O)[C@@H](NC(=O)[C@@H](N)Cc1ccccc1)C(C)C)C(=O)N[C@@H](CC(C)C)C(N)=O [FVQWFSKFLGRIL]

MIC [28]: 19.8 µM (≈ 32 µg/mL)
MIC (Escherichia coli BW25113): 4.96 µM (≈ 8 µg/mL)
MIC [29]: 9.92 µM (≈ 16 µg/mL)
MIC [30]: 19.8 µM (≈ 32 µg/mL)
MIC [31]: 19.8 µM (≈ 32 µg/mL)
MIC [32]: 2.48 µM (≈ 4 µg/mL)
MIC [33]: 19.8 µM (≈ 32 µg/mL)
MIC [34]: 19.8 µM (≈ 32 µg/mL)
MIC [35]: 4.96 µM (≈ 8 µg/mL)
MIC [36]: 2.74 µM and 5.48 µM
MIC [37]: 9.92 µM (≈ 16 µg/mL)
MIC [38]: 19.8 µM (≈ 32 µg/mL)
MIC [39]: 19.8 µM (≈ 32 µg/mL)
MIC [40]: 19.8 µM (≈ 32 µg/mL)
MIC [41]: 19.8 µM (≈ 32 µg/mL)
MIC [42]: 4.96 µM (≈ 8 µg/mL)
MIC [24]: 2.48 µM (≈ 4 µg/mL)
MIC (Escherichia coli JW55034): 4.96 µM (≈ 8 µg/mL)
SMILES: CC[C@H](C)[C@H](NC(=O)CN)C(=O)N[C@@H](CCCCN)C(=O)N[C@H](C(=O)N[C@@H](CCCN=C(N)N)C(=O)N[C@@H](CCCCN)C(=O)N[C@@H](CC(C)C)C(=O)N[C@@H](Cc1ccccc1)C(=O)N[C@@H](CCCCN)C(=O)N[C@@H](CCCCN)C(=O)N[C@@H](CC(C)C)C(=O)N[C@@H](CC(C)C)C(=O)N[C@@H](CCCN=C(N)N)C(N)=O)[C@@H](C)CC [GIKIRKLFKKLLR]

— DBAASP
